Measured values as given in ChEMBL document CHEMBL2057070, “Discovery of a novel azaindole class of antibacterial agents targeting the ATPase domains of DNA gyrase and Topoisomerase IV” (Bioorg Med Chem Lett, 2012).
In brackets after ≈: the same amount, converted by molar mass.

What was measured:
Streptococcus pneumoniae = experiment: Antibacterial activity against Streptococcus pneumoniae ARC548; assay type: functional
Staphylococcus aureus [1] = experiment: Antibacterial activity against methicillin-, quinolone-resistant Staphylococcus aureus; assay type: functional
Staphylococcus aureus [2] = experiment: Antibacterial activity against methicillin-sensitive Staphylococcus aureus; assay type: functional
[3] = Lipophilicity, log D of the compound; details: octanol/water
[4] = Inhibition of Streptococcus pneumoniae DNA Topoisomerase 4 subunit ParE
DNA gyrase subunit B = DNA gyrase subunit B (Staphylococcus aureus, UniProt P0A0K8); experiment: Inhibition of Staphylococcus aureus DNA gyrase B expressed in Escherichia coli BL21(DE3) cells assessed ATP hydrolysis activity […] by malachite green reagent assay
[5] = Ratio of IC50 for Staphylococcus aureus DNA gyrase B to IC50 for Streptococcus pneumoniae Topoisomerase ParE

Sequence of DNA gyrase subunit B (P0A0K8 whole entry): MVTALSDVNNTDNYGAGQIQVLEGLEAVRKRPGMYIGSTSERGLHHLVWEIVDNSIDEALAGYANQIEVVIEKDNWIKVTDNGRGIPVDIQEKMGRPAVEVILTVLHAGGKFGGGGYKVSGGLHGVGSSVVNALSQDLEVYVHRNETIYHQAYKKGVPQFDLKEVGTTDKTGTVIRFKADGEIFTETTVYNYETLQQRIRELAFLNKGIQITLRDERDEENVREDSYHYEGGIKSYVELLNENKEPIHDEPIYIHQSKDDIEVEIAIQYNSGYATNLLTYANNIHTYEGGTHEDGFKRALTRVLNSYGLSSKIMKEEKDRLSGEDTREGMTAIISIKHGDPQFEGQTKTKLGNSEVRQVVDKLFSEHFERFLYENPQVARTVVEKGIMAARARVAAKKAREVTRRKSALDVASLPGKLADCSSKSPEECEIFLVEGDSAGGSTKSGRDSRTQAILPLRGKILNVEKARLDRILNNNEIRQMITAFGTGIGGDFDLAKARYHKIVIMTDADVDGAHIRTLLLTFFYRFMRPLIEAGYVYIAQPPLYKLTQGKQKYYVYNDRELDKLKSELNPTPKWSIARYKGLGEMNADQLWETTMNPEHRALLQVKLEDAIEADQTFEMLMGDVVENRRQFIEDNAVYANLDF

SMILES	MIC (Streptococcus pneumoniae) [µM]	MIC (Staphylococcus aureus [1]) [µM]	MIC (Staphylococcus aureus [2]) [µM]	logD [3]	IC50 [4] [nM]	IC50 (DNA gyrase subunit B) [nM]	Ratio IC50 [5]
CO[C@@H]1[C@@H](OC(N)=O)[C@@H](O)[C@H](Oc2ccc3c(O)c(NC(=O)c4ccc(O)c(CC=C(C)C)c4)c(=O)oc3c2C)OC1(C)C [NOVOBIOCIN]	0.78 (≈ 0.478 µg/mL)	0.39 (≈ 0.239 µg/mL)	0.39 (≈ 0.239 µg/mL)				
CCNC(=O)c1cc2c(-n3ccc(C(F)(F)F)n3)c(-c3cncc(C(=O)O)c3)cnc2[nH]1	6.25 (≈ 2.78 µg/mL)		> 25	-0.99			
CC(C)NC(=O)c1cc2c(-n3ccc(C(F)(F)F)n3)c(-c3cncc(C(=O)O)c3)cnc2[nH]1	> 25		> 25	-0.62	44	147	
CCNC(=O)c1cc2c(-n3ccc(C(F)(F)F)n3)c(-c3cncc(C(N)=O)c3)cnc2[nH]1	0.2 (≈ 0.0887 µg/mL)	> 25	25 (≈ 11.1 µg/mL)				
CCNC(=O)c1cc2c(-n3nc(C(F)(F)F)cc3C)c(-c3cncc(C(=O)O)c3)cnc2[nH]1	12.5 (≈ 5.73 µg/mL)		> 25	-0.88	65	133	
O=C(O)c1cncc(-c2cnc3[nH]c(C(=O)NC4CC4)cc3c2-n2ccc(C(F)(F)F)n2)c1	25 (≈ 11.4 µg/mL)		> 25	-0.98	6	39	> 3
CCNC(=O)c1cc2c(-n3ccc(C(F)(F)F)n3)c(-c3cncc(C(=O)NC)c3)cnc2[nH]1	0.098 (≈ 0.0448 µg/mL)	12.5 (≈ 5.72 µg/mL)	6.25 (≈ 2.86 µg/mL)	2.21	16	11	
C[C@H]1COc2c(N3CCN(C)CC3)c(F)cc3c(=O)c(C(=O)O)cn1c23 [LEVOFLOXACIN]	3.13 (≈ 1.13 µg/mL)	> 25	0.78 (≈ 0.282 µg/mL)				
CCNC(=O)c1cc2c(-n3ccc(C(F)(F)F)n3)c(-c3cncc(-c4n[nH]c(=O)o4)c3)cnc2[nH]1	< 0.03	1.1 (≈ 0.533 µg/mL)	0.4 (≈ 0.194 µg/mL)	1.65	3	< 1	
CCNC(=O)c1cc2c(-n3ccc(C(F)(F)F)n3)c(-c3cnc(OC)c(-c4n[nH]c(=O)o4)c3)cnc2[nH]1	< 0.03	1.56 (≈ 0.803 µg/mL)	0.78 (≈ 0.401 µg/mL)		3	4	
CCNC(=O)c1cc2c(-n3ccc(C(F)(F)F)n3)c(-c3cc(-c4n[nH]c(=O)o4)cnc3OC)cnc2[nH]1	< 0.02	0.2 (≈ 0.103 µg/mL)	0.098 (≈ 0.0504 µg/mL)	2.91	3	2	
O=C(O)/C=C/c1cccc(-c2cnc3[nH]ccc3c2)c1	200 (≈ 52.9 µg/mL)		> 200	0.58			
CCNC(=O)c1cc2c(-n3ccc(C(F)(F)F)n3)c(-c3cncc(C#N)c3)cnc2[nH]1	0.2 (≈ 0.0851 µg/mL)	1.56 (≈ 0.664 µg/mL)	3.13 (≈ 1.33 µg/mL)	2.62	10	23	
CCCNC(=O)c1cc2c(-n3ccc(C(F)(F)F)n3)c(-c3cncc(C(=O)O)c3)cnc2[nH]1	> 25		> 25	-0.79	45	58	
